Data taken from US20060258736A1, “DOSING REGIMEN” (Bristol-Myers Squibb Company, priority 2005, published 2006).
“Also recorded” adds a separate entry of the source.

Legend:
Format in all cases: in vivo, human
[1] = tested on: patients with advanced solid tumors; experiment: Phase I clinical trial, twice weekly oral dosing: toxicity (NCI-CTC version 2.0) and dose limiting toxicities; settings: for Neuropathy / neurotoxicity on twice weekly regimen compared to weekly schedule: twice weekly vs weekly
Experimental: Patients with histologically confirmed, advanced solid tumors refractory to standard therapy, ECOG performance status 0-2, and adequate live, renal and bone marrow function without symptomatic brain metastasis or pre-existing neuropathy ≧grade 2 were eligible for the trial.
The starting dose was 60 mg/m^2 with planned dose escalation of 20 mg/m^2 for each next cohort, consisting of at least 3 patients. Cohorts were expanded to 6 patients upon occurrence of a dose limiting toxicity (DLT). No premedication was required.
Toxicity was evaluated according to NCI-CTC (version 2.0).
Dose limiting toxicities (DLTs) were defined as any of the following drug related events occurring during the first cycle (first 4 weeks): grade 4 neutropenia>5 days, febrile neutropenia, grade 4 thrombocytopenia or grade 3 requiring platelet transfusion, any grade 3-4 non-hematological toxicity, QTc interval>500 msec, any significant arrhythmia, any dose reduction or omission due to toxicity.

[2] = tested on: advanced solid tumors refractory to standard therapy; experiment: Phase I clinical trial, twice weekly oral dosing: tumor response (modified WHO criteria)
Experimental: Patients with histologically confirmed, advanced solid tumors refractory to standard therapy, ECOG performance status 0-2, and adequate live, renal and bone marrow function without symptomatic brain metastasis or pre-existing neuropathy ≧grade 2 were eligible for the trial. The starting dose was 60 mg/m^2 with planned dose escalation of 20 mg/m^2 for each next cohort, consisting of at least 3 patients. Cohorts were expanded to 6 patients upon occurrence of a dose limiting toxicity (DLT). No premedication was required. Tumor response was evaluated according to the modified WHO criteria.

patients = experiment: Neuropathy on the weekly treatment schedule (comparison, n = 48)
[3] = any cycle, 19 patients, 60-100 mg/m^2 twice weekly

Q: What does the source list for COC(=O)O[C@@]12CO[C@@H]1C[C@H](O)[C@@]1(C)C(=O)[C@H](OC(C)=O)C3=C(C)[C@@H](OC(=O)[C@H](O)[C@@H](NC(=O)OC(C)(C)C)C(C)(C)C)C[C@@](O)([C@@H](OC(=O)c4ccccc4)[C@H]21)C3(C)C [Compound I, 3′-tert-butyl-3′-N-tert-butyloxycarbonyl-4-deacetyl-3′-dephenyl-3 ′-N-debenzoyl-4-O-methoxycarbonyl-paclitaxel]?
A: Dose limiting toxicities (DLTs) ([1]; 60 mg/m^2 twice weekly (n=3), first cycle): No dose limiting toxicities (DLTs) have been observed; Dose limiting toxicities (DLTs), number ([1]; 80 mg/m^2 twice weekly (n=10), first cycle, a grade 3 fatigue and a dose-omission due to grade 2 peripheral neuropathy): 2; Toxicity shortly after the first cycle (not meeting DLT criteria) ([1]; 100 mg/m^2 twice weekly): one patient developed grade 4 neutropenia, grade 3 fatigue and grade 3 hematuria; Dose limiting toxicities (DLTs) ([1]; 100 mg/m^2 twice weekly, first three patients, first cycle): no DLTs were observed in the first three patients; Neuropathy (any cycle) Grade 1, no. of patients ([1]; Twice weekly schedule (n = 19)): 8; Neuropathy (any cycle) Grade 1, percent of patients ([1]; Twice weekly schedule (n = 19)): 42%; Neuropathy (any cycle) Grade 2, no. of patients ([1]; Twice weekly schedule (n = 19)): 2; Neuropathy (any cycle) Grade 2, percent of patients ([1]; Twice weekly schedule (n = 19)): 10%; Neuropathy (any cycle) Total, no. of patients ([1]; Twice weekly schedule (n = 19)): 10; Neuropathy (any cycle) Total, percent of patients ([1]; Twice weekly schedule (n = 19)): 52%; Drug-related side effects: Abdominal pain, Gr 1-2 (no. of patients) [1, 3]: 2; Drug-related side effects: Alopecia, Gr 1-2 (no. of patients) [1, 3]: 3; Drug-related side effects: Anorexia, Gr 1-2 (no. of patients) [1, 3]: 6; Drug-related side effects: Diarrhea, Gr 1-2 (no. of patients) [1, 3]: 9; Drug-related side effects: Epistaxis, Gr 1-2 (no. of patients) [1, 3]: 7; Drug-related side effects: Fatigue, Gr 1-2 (no. of patients) [1, 3]: 7; Drug-related side effects: Fatigue, Gr 3 (no. of patients) [1, 3]: 2; Drug-related side effects: Hematuria, Gr 3 (no. of patients) [1, 3]: 1; Drug-related side effects: Motor neuropathy, Gr 1-2 (no. of patients) [1, 3]: 1; Drug-related side effects: Myalgia, Gr 1-2 (no. of patients) [1, 3]: 3; Drug-related side effects: Nausea, Gr 1-2 (no. of patients) [1, 3]: 3; Drug-related side effects: Neutropenia, Gr 1-2 (no. of patients) [1, 3]: 1; Drug-related side effects: Neutropenia, Gr 4 (no. of patients) [1, 3]: 1; Drug-related side effects: Sens. neuropathy, Gr 1-2 (no. of patients) [1, 3]: 10; Drug-related side effects: Stomatitis, Gr 1-2 (no. of patients) [1, 3]: 1; Drug-related side effects: Taste disturbance, Gr 1-2 (no. of patients) [1, 3]: 7; Drug-related side effects: Thrombocytopenia, Gr 1-2 (no. of patients) [1, 3]: 5; Drug-related side effects: Vomiting, Gr 1-2 (no. of patients) [1, 3]: 2; Tolerability ([1]; twice weekly treatment regimen): well tolerated; Neuropathy / neurotoxicity on twice weekly regimen compared to weekly schedule [1]: reduces peripheral neuropathy; also recorded: neuropathy appears to be less frequent and less severe; also recorded: Neuropathy appears to occur less frequently and to be less severe than on a weekly treatment schedule; Neuropathy / neurotoxicity on twice weekly regimen compared to weekly schedule ([1]; listed as 3′-tert-butyl-3′-N-tert-butyloxycarbonyl-4-deacetyl-3′-dephenyl-3′-N-debenzoyl-4): may reduce the neurotoxicity of the drug; Confirmed partial responses ([2]; 18 response-evaluable patients): three confirmed partial responses were observed in 18 response-evaluable patients; Confirmed partial responses, no. of patients ([2]; of 3 prostate carcinoma patients): 1; Confirmed partial responses, no. of patients ([2]; of 6 response-evaluable NSCLC patients): 2; Antitumor activity ([2]; patients with NSCLC and prostate carcinoma): Promising activity has been observed; Neuropathy (any cycle) Grade 1, no. of patients (patients; Weekly schedule (n = 48)): 6; Neuropathy (any cycle) Grade 1, percent of patients (patients; Weekly schedule (n = 48)): 13%; Neuropathy (any cycle) Grade 2, no. of patients (patients; Weekly schedule (n = 48)): 19; Neuropathy (any cycle) Grade 2, percent of patients (patients; Weekly schedule (n = 48)): 40%; Neuropathy (any cycle) Grade 3, no. of patients (patients; Weekly schedule (n = 48)): 6; Neuropathy (any cycle) Grade 3, percent of patients (patients; Weekly schedule (n = 48)): 12%; Neuropathy (any cycle) Total, no. of patients (patients; Weekly schedule (n = 48)): 31; Neuropathy (any cycle) Total, percent of patients (patients; Weekly schedule (n = 48)): 65%; Main and dose limiting toxicity (patients; weekly treatment regimen): peripheral neuropathy
